Values quoted from earlier work as cited in patent publication EP0002485B1, “Process for the preparation of marking compositions containing tin” (HOECHST AKTIENGESELLSCHAFT, priority 1977, dated 1979).

How the values were obtained:
[1] = labelled with Tc-99m; compared with pyro- and polyphosphates
[2] = time until optimum of skeletal accumulation

Substance | Plasmaclearance [1] | Anreicherung im Skelett erreicht das Optimum [2]
1-Hydroxyäthan-1,1-diphosphonsäure [HEDP] | bedeutend schnellere | 
Methylendiphosphonsäure [MDP] |  | zwei
